# According to ChEMBL document CHEMBL5038581, “Design, synthesis, and biological evaluation of novel dual inhibitors targeting lysine specific demethylase 1 (LSD1) and histone deacetylases (HDAC) for treatment of gastric cancer” (Eur J Med Chem, 2021):
# Legend:
# CYP2C9 = CYP2C9 (Homo sapiens, UniProt P11712); assay: in vitro; settings: probe diclofenac
# CYP2D6 = CYP2D6 (Homo sapiens, UniProt P10635); assay: in vitro; settings: probe dextromethorphan
# MGC-803 [1] = assay: cells; settings: Homo sapiens, MGC-803, 72 h
# MGC-803 [2] = assay: Induction of apoptosis in human MGC-803 cells assessed as apoptotic cells at 5 uM incubated for 48 hrs by annexin V-FITC and PI staining based flowcytometry analysis (Rvb =4.3 %); type: functional
# HCT-116 = assay: cells; settings: Homo sapiens, HCT-116, 72 h
# [3] = biological target: T1, Lysine-specific histone demethylase 1A (Homo sapiens, UniProt O60341); assay: Inhibition of recombinant LSD1 (157 to 852 residues) (unknown origin) expressed in Escherichia coli BL21 (DE) at 10 uM using H3K4me2 as substrate by amplex red assay relative to control
# Histone deacetylase 1 = Histone deacetylase 1 (Homo sapiens, UniProt Q13547); assay: Inhibition of HDAC1 (unknown origin) using Ac-peptide as substrate preincubated for 15 mins followed by substrate addition by fluorescence assay
# MGC-803 [4] = assay: Antiproliferative activity against human MGC-803 cells assessed as reduction in cell viability at 10 uM after 72 hrs by CellTiter-Glo assay; type: functional
# [5] = biological target: T2, Protein deacetylase HDAC6 (Homo sapiens, UniProt Q9UBN7); assay: Inhibition of HDAC6 (unknown origin) using Ac-peptide as substrate preincubated for 15 mins followed by substrate addition by fluorescence assay
# T2 sequence (Q9UBN7 whole entry): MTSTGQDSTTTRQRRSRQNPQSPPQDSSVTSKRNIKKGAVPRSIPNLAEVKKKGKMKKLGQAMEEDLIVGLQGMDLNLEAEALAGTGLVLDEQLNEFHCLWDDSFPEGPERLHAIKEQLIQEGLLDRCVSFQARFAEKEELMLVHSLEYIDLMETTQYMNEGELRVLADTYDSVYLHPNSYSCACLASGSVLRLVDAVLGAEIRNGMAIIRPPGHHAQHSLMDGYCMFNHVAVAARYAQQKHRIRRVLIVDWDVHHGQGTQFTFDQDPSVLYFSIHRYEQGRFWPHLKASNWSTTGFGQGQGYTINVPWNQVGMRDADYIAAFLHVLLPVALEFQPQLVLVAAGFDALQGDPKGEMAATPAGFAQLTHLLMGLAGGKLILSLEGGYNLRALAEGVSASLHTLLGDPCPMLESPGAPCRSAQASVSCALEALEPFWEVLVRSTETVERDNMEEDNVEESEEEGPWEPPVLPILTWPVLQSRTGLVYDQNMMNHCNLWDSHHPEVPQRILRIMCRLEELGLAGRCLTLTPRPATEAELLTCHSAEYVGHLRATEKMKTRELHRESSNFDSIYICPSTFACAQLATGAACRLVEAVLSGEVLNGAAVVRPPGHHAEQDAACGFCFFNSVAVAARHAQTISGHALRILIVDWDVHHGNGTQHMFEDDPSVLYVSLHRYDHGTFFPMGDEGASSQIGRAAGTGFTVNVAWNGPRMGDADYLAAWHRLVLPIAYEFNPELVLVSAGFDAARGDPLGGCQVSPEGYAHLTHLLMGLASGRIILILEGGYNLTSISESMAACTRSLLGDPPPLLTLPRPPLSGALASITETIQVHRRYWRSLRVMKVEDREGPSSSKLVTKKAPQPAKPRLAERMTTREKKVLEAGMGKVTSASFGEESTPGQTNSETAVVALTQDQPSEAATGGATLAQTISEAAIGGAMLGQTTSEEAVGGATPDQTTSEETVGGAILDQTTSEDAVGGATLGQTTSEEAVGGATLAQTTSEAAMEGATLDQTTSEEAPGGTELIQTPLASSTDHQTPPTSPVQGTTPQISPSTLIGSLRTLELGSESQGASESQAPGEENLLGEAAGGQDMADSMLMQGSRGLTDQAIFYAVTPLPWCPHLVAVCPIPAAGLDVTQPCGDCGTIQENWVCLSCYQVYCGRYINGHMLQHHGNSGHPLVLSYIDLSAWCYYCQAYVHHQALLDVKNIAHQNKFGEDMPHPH
# Histone deacetylase 5 = Histone deacetylase 5 (Homo sapiens, UniProt Q9UQL6); assay: Inhibition of HDAC5 (unknown origin) using Ac-peptide as substrate preincubated for 15 mins followed by substrate addition by fluorescence assay
# [6] = biological target: T1, Lysine-specific histone demethylase 1A; assay: Inhibition of recombinant LSD1 (157 to 852 residues) (unknown origin) expressed in Escherichia coli BL21 (DE) using H3K4me2 as substrate by amplex red assay
# Histone deacetylase 2 = Histone deacetylase 2 (Homo sapiens, UniProt Q92769)
# SNU1 = assay: cells; settings: Homo sapiens, SNU1, 72 h
# BGC-823 = assay: cells; settings: Homo sapiens, BGC-823, 72 h
# NCI-N87 = assay: cells; settings: Homo sapiens, NCI-N87, 72 h
# MKN-1 = assay: cells; settings: Homo sapiens, MKN-1, 72 h
# AGS = assay: cells; settings: Homo sapiens, 72 h
# MKN-45 = assay: cells; settings: Homo sapiens, MKN-45, 72 h
# CYP1A2 = biological target: T3, CYP1A2 (Homo sapiens, UniProt P05177); assay: in vitro; settings: probe phenacetin
# T3 sequence (P05177 whole entry): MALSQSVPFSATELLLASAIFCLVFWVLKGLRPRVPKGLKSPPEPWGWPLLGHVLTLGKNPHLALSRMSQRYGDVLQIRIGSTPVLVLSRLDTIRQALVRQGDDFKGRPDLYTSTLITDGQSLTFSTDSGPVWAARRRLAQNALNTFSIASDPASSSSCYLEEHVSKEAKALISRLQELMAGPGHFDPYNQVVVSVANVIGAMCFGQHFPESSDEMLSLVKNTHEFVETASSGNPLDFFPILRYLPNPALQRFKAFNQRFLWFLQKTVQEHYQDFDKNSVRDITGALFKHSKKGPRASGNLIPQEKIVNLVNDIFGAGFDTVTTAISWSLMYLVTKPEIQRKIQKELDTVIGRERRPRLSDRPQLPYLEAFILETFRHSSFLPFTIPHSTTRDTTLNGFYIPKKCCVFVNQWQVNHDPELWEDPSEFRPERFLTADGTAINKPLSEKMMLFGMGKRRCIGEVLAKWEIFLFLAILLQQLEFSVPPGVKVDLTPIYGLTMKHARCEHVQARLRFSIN
# CYP3A4 = CYP3A4 (Homo sapiens, UniProt P08684); assay: in vitro; settings: probe testosterone
# CYP3A4, sequence (P08684 whole entry): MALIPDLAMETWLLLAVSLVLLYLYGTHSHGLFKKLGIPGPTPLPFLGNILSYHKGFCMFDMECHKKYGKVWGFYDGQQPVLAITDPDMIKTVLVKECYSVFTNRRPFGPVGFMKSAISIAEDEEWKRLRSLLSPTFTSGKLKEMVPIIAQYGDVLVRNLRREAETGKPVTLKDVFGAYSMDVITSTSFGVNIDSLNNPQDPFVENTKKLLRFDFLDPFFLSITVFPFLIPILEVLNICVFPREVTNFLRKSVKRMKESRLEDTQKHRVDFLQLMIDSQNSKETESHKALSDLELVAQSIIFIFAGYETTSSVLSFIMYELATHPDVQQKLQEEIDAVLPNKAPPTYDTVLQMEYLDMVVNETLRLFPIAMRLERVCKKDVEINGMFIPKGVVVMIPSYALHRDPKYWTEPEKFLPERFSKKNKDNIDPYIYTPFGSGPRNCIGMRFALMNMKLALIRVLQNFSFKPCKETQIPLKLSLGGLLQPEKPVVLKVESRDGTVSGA
# Histone deacetylase 1, sequence (Q13547 whole entry): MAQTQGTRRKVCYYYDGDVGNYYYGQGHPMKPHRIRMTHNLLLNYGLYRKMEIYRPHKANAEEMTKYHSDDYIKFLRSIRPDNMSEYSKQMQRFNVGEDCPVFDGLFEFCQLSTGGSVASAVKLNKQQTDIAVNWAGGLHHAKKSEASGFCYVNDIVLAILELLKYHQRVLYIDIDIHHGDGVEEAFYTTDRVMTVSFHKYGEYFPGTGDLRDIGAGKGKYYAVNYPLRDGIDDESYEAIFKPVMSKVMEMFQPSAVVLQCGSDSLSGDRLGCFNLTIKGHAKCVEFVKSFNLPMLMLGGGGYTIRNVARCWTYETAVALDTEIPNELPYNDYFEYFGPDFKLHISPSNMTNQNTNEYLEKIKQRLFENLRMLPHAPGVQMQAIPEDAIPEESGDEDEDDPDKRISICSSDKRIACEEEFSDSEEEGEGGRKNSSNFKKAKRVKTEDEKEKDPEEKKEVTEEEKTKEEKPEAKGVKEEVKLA
# Histone deacetylase 2, sequence (Q92769 whole entry): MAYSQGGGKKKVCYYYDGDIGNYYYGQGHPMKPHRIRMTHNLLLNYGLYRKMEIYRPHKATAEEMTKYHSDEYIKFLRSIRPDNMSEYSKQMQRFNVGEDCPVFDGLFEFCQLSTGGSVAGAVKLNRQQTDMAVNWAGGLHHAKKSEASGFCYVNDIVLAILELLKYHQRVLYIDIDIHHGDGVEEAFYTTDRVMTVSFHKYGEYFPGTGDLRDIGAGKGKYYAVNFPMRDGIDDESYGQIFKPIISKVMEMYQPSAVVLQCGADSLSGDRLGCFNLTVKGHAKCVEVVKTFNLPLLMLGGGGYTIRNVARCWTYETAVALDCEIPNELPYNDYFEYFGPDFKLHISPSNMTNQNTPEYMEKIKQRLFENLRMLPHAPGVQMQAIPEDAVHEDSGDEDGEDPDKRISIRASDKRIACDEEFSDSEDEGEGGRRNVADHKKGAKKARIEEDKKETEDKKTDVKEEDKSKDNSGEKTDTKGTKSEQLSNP
# Histone deacetylase 5, sequence (Q9UQL6 whole entry, the tested form may be a part): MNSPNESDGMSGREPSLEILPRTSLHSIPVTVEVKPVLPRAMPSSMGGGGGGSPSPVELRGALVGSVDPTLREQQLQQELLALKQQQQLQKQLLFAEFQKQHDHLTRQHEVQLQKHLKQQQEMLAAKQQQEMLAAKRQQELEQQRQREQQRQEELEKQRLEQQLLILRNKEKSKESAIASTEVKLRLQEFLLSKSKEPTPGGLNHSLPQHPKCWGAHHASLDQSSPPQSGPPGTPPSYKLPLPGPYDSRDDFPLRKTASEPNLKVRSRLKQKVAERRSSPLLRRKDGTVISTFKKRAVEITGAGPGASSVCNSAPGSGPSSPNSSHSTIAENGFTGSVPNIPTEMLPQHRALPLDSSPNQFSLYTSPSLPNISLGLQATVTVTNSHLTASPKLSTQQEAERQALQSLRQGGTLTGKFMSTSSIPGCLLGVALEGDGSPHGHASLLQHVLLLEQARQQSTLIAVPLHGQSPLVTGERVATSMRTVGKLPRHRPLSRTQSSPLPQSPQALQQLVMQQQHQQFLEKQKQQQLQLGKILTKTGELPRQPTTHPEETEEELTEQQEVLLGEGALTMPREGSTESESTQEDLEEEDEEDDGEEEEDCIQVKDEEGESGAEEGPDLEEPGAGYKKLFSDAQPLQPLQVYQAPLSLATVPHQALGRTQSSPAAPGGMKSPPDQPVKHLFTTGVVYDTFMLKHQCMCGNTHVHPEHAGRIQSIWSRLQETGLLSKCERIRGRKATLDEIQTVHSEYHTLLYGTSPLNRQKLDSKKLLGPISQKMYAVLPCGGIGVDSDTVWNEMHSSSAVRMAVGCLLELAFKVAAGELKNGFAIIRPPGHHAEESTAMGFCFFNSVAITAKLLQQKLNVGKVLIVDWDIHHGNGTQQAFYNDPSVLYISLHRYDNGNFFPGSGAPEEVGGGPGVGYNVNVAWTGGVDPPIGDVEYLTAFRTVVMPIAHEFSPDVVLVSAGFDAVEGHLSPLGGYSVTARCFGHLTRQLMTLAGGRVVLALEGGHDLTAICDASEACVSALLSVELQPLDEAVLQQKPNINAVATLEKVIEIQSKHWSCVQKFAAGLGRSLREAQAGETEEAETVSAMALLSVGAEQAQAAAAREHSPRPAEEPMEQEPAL
# CYP2D6, sequence (P10635 whole entry): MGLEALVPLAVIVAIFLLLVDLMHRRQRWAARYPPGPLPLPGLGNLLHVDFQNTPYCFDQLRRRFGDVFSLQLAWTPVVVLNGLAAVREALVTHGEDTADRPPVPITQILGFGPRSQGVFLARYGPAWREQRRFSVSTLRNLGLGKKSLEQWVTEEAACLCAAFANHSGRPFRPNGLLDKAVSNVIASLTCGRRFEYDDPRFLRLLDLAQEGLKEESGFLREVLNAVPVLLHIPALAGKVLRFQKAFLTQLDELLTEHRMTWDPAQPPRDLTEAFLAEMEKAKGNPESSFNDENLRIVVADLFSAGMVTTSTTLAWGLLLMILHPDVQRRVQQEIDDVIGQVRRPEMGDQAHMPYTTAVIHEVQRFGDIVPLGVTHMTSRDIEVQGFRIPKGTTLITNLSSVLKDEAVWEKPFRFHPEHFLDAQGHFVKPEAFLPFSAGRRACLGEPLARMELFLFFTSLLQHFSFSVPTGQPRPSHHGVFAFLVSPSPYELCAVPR
# CYP2C9, sequence (P11712 whole entry): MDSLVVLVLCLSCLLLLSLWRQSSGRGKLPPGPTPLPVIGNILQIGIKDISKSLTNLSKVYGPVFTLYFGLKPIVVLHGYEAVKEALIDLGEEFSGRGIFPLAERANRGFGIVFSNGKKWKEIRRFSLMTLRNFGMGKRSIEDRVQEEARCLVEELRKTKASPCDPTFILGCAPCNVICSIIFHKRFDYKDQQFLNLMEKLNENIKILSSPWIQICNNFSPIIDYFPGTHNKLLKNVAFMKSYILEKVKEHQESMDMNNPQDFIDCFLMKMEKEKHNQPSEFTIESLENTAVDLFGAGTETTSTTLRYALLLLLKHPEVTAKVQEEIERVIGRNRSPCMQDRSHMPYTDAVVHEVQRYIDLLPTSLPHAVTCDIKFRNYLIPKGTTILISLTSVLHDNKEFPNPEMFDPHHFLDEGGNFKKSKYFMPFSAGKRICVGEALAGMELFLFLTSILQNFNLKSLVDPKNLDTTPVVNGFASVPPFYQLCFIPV
structure (smiles),measurement,setting,value
Nc1ccc(S(=O)(=O)Nc2ccnn2-c2ccccc2)cc1 [SULFAPHENAZOLE],inhibition at 1 µM,CYP2C9,79.9%
C=C[C@H]1C[N@@]2CC[C@H]1C[C@@H]2[C@@H](O)c1ccnc2ccc(OC)cc12 [QUINIDINE],inhibition at 1 µM,CYP2D6,91.3%
O=C(CCCCCCC(=O)Nc1ccccc1)NO [VORINOSTAT],IC50,MGC-803 [1],1.54 µM
same,Activity,MGC-803 [2],73.8%
same,IC50,HCT-116,1.85 µM
O=C(NO)c1ccc(/C=C/c2cc(-c3ccc(C(F)(F)F)cc3)ncc2F)cc1,inhibition,[3],5.6%
same,IC50,MGC-803 [1],> 10 µM
same,IC50,Histone deacetylase 1,2.95 µM
same,IC50,HCT-116,> 10 µM
O=C(NO)c1ccc(/C=C/c2ccnc(-c3ccc(C(F)(F)F)cc3)c2)cc1,inhibition,[3],33%
same,IC50,MGC-803 [1],> 10 µM
same,IC50,Histone deacetylase 1,4.84 µM
same,IC50,HCT-116,> 10 µM
N/C(=N\O)c1cccc(/C=C/c2ccnc(-c3cc(F)ccc3O)c2)c1,inhibition at 10 µM,MGC-803 [4],35.3%
Cc1ccc(-c2cc(/C=C/c3ccc(C(=O)NO)cc3)c(F)cn2)c(F)c1,inhibition,[3],55.2%
same,IC50,MGC-803 [1],2.51 µM
same,IC50,Histone deacetylase 1,0.88 µM
same,IC50,HCT-116,1.67 µM
O=C(NO)c1cccc(/C=C/c2ccnc(-c3ccccc3O)c2)c1,IC50,MGC-803 [1],2.81 µM
same,IC50,[5],0.39 µM
same,IC50,Histone deacetylase 5,> 10 µM
same,IC50,Histone deacetylase 1,1.47 µM
same,IC50,[6],2.26 µM
same,IC50,HCT-116,3.36 µM
same,IC50,Histone deacetylase 2,1.87 µM
N[C@H]1CC[C@H](N[C@@H]2C[C@H]2c2ccccc2)CC1,IC50,SNU1,> 50 µM
same,IC50,BGC-823,> 50 µM
same,IC50,NCI-N87,> 50 µM
same,IC50,MKN-1,> 50 µM
same,IC50,AGS,> 50 µM
same,IC50,MKN-45,> 50 µM
C/C(=N\NC(=O)c1cccc(S(=O)(=O)N2CCOCC2)c1)c1cc(Cl)ccc1O,IC50,SNU1,8.03 µM
same,IC50,BGC-823,8.08 µM
same,IC50,NCI-N87,10.5 µM
same,IC50,MKN-1,8.98 µM
same,IC50,AGS,6.19 µM
same,IC50,MKN-45,26.7 µM
Cc1ccc(-c2cncc(/C=C/c3ccc(C(=O)NO)cc3)c2)cc1,inhibition,[3],29.8%
same,IC50,MGC-803 [1],> 10 µM
same,IC50,Histone deacetylase 1,43.6 µM
same,IC50,HCT-116,> 10 µM
O=C(NO)c1cccc(/C=C/c2ccnc(-c3cc(F)ccc3O)c2)c1,IC50,MGC-803 [1],2.71 µM
same,IC50,[5],0.4 µM
same,IC50,Histone deacetylase 5,> 10 µM
same,IC50,Histone deacetylase 1,1.51 µM
same,IC50,HCT-116,3.89 µM
same,IC50,Histone deacetylase 2,2.06 µM
O=c1cc(-c2ccccc2)oc2c1ccc1ccccc12 [ALPHA-NAPHTHOFLAVONE],inhibition at 0.2 µM,CYP1A2,90.9%
CC(=O)N1CCN(c2ccc(OCC3COC(Cn4ccnc4)(c4ccc(Cl)cc4Cl)O3)cc2)CC1 (centres undefined) [KETOCONAZOLE],inhibition at 0.1 µM,CYP3A4,65.9%
